# From patent US6864086B2, “Nitric oxide-scavenging system for culturing oocytes, embryos, or other cells” (Board of Supervisors of Louisiana State University and …, priority 1998, dated 2005)
# Where “and” joins values, the source holds several entries; their conditions need not be identical. Equal entries are not always repeated.
# System: bovine embryos
# Test: Example 9: L-NAME (1 or 1000 nM) added to mBECM containing serum and Hb, pre-hatching development
# Type: cell-based
# Parameters: key to Least square mean of embryos developed to 16-cell / Least square mean of embryos developed to Blastocyst / Least square mean of embryos developed to 2-cell / Least square mean of embryos developed to 8-cell / Least square mean of embryos developed to Morula: fraction developed; each embryo scored 1 = developed, 0 = not developed
# Details: Hb 1 μg/ml, no L-NAME
# Procedure: The basic medium used for maturation of oocytes was tissue culture medium (TCM)-199 with Earle's salts, buffered with 25 mM HEPES (Gibco BRL, Grand Island, N.Y.) and supplemented with 10% (v/v) heat-inactivated fetal bovine serum (FBS; Hyclone Laboratories, Logan, Utah), 1 μg/ml estradiol-17β (NOBL Laboratories, Sioux Center, Iowa), 3 μg/ml bovine FSH (NOBL Laboratories), 6 μg/ml bovine LH (NOBL Laboratories), and 25 μg/ml gentamycin (Sigma Chemical Co., St. Louis, Mo.). The basic medium used for treatment of spermatozoa and fertilization of oocytes was a modified Tyrode's medium (J. Parrish et al., Capacitation of bovine sperm by heparin. Biol. Reprod. 38:1171-1180 (1988)), supplemented with 0.25 mM sodium pyruvate (Gibco BRL), 6 mg/ml fatty acid (FA)-free BSA (No. A-6003, Sigma), 15 μg/ml calcium heparin from porcine intestinal mucosa (183 USP/mg; H-8398, Sigma), and 25 μg/ml gentamycin. Modified bovine embryo culture medium (mBECM) containing 10 μM β-mercaptoethanol was used for culture of embryos, as described in J. Lim et al., “Roles of growth factors in the development of bovine embryos fertilized in vitro and cultured singly in a defined medium,” Reprod. Fertil. Dev., 8:1199-1205 (1996). mBECM supplemented with 10% (v/v) FBS was used for co-culturing inseminated oocytes with CGC. Osmolarity of the medium was maintained within the range of 265-290 mOsm.
# All cumulus-oocyte complexes (COC) were collected in Madison, Wis. (BOMED, Inc.) and were shipped in 2 ml of maturation medium in a battery powered incubator via overnight express mail service. Oocytes matured during transit and arrived within 24 h after exposure to maturation medium, pre-equilibrated at 39° C. in 5% CO2 in air. At 22 to 24 h after exposure to the medium, the COCs were inseminated in vitro as described in J. Lim et al., “Intracytoplasmic glutathione concentration and the role of β-mercaptoethanol in preimplantation development of bovine embryos,” Theriogenology, 46:429-439 (1996). At 18 h post-insemination, COCs were cultured in groups (28-40 embryos) in a 4-well multidish (Nunc, Roskilde, Denmark) containing 0.8-ml of mBECM. Embryos were dislodged from CGC at 36 to 48 h post-insemination.
# In Example 9, IVF embryos were cultured in MBECM supplemented as follows: 1) no addition (control), 2) Hb (1 μg/ml), 3) Hb plus L-NAME (1 nM), and 4) Hb plus L-NAME (1000 nM). Embryonic development was evaluated up to 192 h post-insemination. A total of 384 oocytes were inseminated, and were randomly and equally allotted to 4 replicates.
# Embryos developed to the 2-cell, 8-cell, 16-cell, morula, and blastocyst stages at the pertinent observation times were individually scored ‘1’ (developed). Embryos that had not developed to these stages at the same times were scored ‘0’ (non-developed). Sums of the scores at each stage of development were evaluated by analysis of variance using a general linear model (PROC-GLM) in the SAS statistical programming package (1991). In Example 8, the combined effects of Hb addition and month of oocyte collection were first examined in a 2×7 factorial arrangement. Overall differences in embryonic development in Hb-free and Hb-containing culture systems were further evaluated. […] Differences were regarded as statistically significant where P values were less than 0.05.
substance,measurement,setting,value
hemoglobin [Hb],Number of embryos developed to 2-cell,"96 embryos, 48 h",68
same,Number of embryos developed to 8-cell,"96 embryos, 60 h",54
same,Number of embryos developed to 16-cell,"96 embryos, 120 h",47
same,Number of embryos developed to Morula,"96 embryos, 144 h",35
same,Number of embryos developed to Blastocyst,"96 embryos, 192 h",30
same,Least square mean of embryos developed to 2-cell,48 h,0.708
same,Least square mean of embryos developed to 8-cell,60 h,0.563
same,Least square mean of embryos developed to 16-cell,120 h,0.489
same,Least square mean of embryos developed to Morula,144 h,0.365
same,Least square mean of embryos developed to Blastocyst,192 h,0.312 and 0.313
